Results as given in patent US7091185B2, “Periodic antimicrobial peptides” (Dow Global Technologies Inc., priority 2003, dated 2006).
Read-outs that look alike come from different tables or passages of the source.

Experiments:
E. coli ATCC 2592 = details: ATCC 2592
Protocol: (§1) The bacteria tested were P. aeruginosa American Type Culture Collection Number (ATCC) 10145, E. coli ATCC 2592, and S. aureus (methicillin reseistant) ATTC 33591.
(§2) All experiments were compared to bacterial growth under optimal growth conditions (37° C., pH 7.0, absence of additional salt, growth media—referred to as standard growth conditions). In each plate, no growth control (media alone), positive growth control (bacteria with no test sample), positive antimicrobial controls (agents with known antimicrobial activity) and test compounds were tested.
(§3) The plates were incubated overnight, and the relative percent growth determined by optical density at 620 nm (OD620) using a […] […] PLUS™. […] All samples were tested in duplicate and each assay was repeated at least twice. […] IC50 and MIC are reported in μg/ml.

P. aeruginosa ATCC 10145 = details: ATCC 10145
Protocol: as §1, §2, §3

[1] = test system: S. aureus (methicillin resistant) ATCC 33591; details: ATCC 33591
Protocol: as §1, §2, §3

C. albicans 10231 = type: cell-based; details: 10231
Protocol: (§4) The MIC and IC50 values were determined by a broth microdilution method according to guidelines of the National Committee for Clinical Laboratory Standard as follows: In 96-well tissue culture plates, a fixed volume of bacterial suspension in 2× broth (as defined below) was added to the mixtures or individual compounds dispensed at concentrations varying from 1,000 to 1 μg/ml derived from serial two-fold dilutions in sterile water. The bacteria tested were P. aeruginosa American Type Culture Collection Number (ATCC) 10145, E. coli ATCC 2592, and S. aureus (methicillin reseistant) ATTC 33591.
(§5) The plates were incubated overnight, and the relative percent growth determined by optical density at 620 nm (OD620) using a TITERTEK MULTISKAN PLUS™. […] IC50 values were calculated using a sigmoidal curve fitting software program (GRAPHPAD,™ ISI Software,™ San Diego, Calif.). All samples were tested in duplicate and each assay was repeated at least twice. In the following table, KFAK is the repeat unit and multimers of KFAK were tested. IC50 and MIC are reported in μg/ml.
(§6) Because the antibacterial activity of the periodic peptides was so promising, further experiments were performed to determine if the periodic peptides also had antifungal activity. The experimental design was similar to that above, with accommodation made for fungal growth requirements, including the use of Sabouraud Dextrose Broth (SDB) and Sabouraud Dextrose Agar (SDA) slants.

Cr. Neoformans 32045 = type: cell-based
Protocol: as §4, §5, §6

Red blood cell toxicity = type: cell-based; details: red blood cells (RBC)
Red blood cells (RBC) = assay: Red blood cell toxicity; type: cell-based
HeLa cell line = assay: HeLa MTS cellular reduction toxicity assay; type: cell-based; details: for TX50: 24 h, MTS
Protocol: The RBC protocol was from Blondelle (2000) and is described generally as follows: The toxicity toward the HeLa cell line was determined using a MTS (3-(4-5-dimethylthiazol-2-yl)-5-(3carboxymethoxyphenyl)-2-(4-sulfophenyl)-2H-tetrazolium, sodium salt) cellular reduction assay. MTS (2 mg/mL) was prepared in Dulbecco PBS (pH 7.35), filtered, aliquoted and stored at minus 20° C. In 96 well flat bottomed plates, cell suspensions (250 μL of 6×10^4 cell/mL in each well) were incubated for 48 h at 37° C. (5% CO2 incubator). The peptides (50 μL) were then added to the cell monolayer (following aspiration of the media from each well and addition of 50 μL of Dulbecco's Modified Eagles Medium) at varying concentrations derived from serial 2-fold dilutions, and the plates incubated for 24 h at 37° C. (5% CO2 incubator). Proliferation was then determined by adding a solution of phenazine methosulfate (PMS: 0.92 mg/mL in DPBS) to MTS at a 1:20 ration just prior to the assay. Twenty microliters MTS-PMS solution were added to each well and the plates incubated for 1 h at 37° C. (5% CO2 incubator). The relative percent toxicity was determined by comparing the absorbance at 490 nm of each peptide to the absorbance of cells without peptide. The TX50 (concentration required for 50% toxicity) was calculated using a sigmoidal curve fitting software (Graphpad Prism).

P. aeruginosa ATCC 15442 = assay: HMARQ biocidal kill activity; type: cell-based; details: P. aeruginosa ATCC 15442 (gram−)
Outline: (§7)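 Inoculated sample matrix (200–300 μL) added to biocide in 96-well blocks alongside untreated controls; for kill-time runs organisms added after biocide. Viable counts by MPN serial 1:10 dilution in TSB with 50 μM resazurin indicator; values are ppm (μg/mL) giving 3.5 log kill versus untreated at 15 min or 24 h.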

Staph. aureus ATCC 6538 = assay: HMARQ biocidal kill activity; type: cell-based; details: Staph. aureus ATCC 6538 (gram+)
Outline: as §7

[2] = RBCs, concentration required for 50% toxicity, read-out: TX50

Substance	IC50 (E. coli ATCC 2592) [µg/mL]	MIC (E. coli ATCC 2592) [µg/mL]	IC50 (P. aeruginosa ATCC 10145) [µg/mL]	MIC (P. aeruginosa ATCC 10145) [µg/mL]	IC50 [1] [µg/mL]	MIC [1] [µg/mL]	IC50 (C. albicans 10231) [µg/mL]	MIC (C. albicans 10231) [µg/mL]	IC50 (Cr. Neoformans 32045) [µg/mL]	MIC (Cr. Neoformans 32045) [µg/mL]	HC50 at 24 h (Red blood cell toxicity; [2]) [µg/mL]	% kill at 250 μg/ml (Red blood cells (RBC)) [%]	% kill at 500 μg/ml (HeLa cell line) [%]	TX50 (HeLa cell line) [µg/mL]	ppm needed for 3.5 log kill at 15 min (P. aeruginosa ATCC 15442) [ppm]	ppm needed for 3.5 log kill at 24 hr (P. aeruginosa ATCC 15442) [ppm]	ppm needed for 3.5 log kill at 15 min (Staph. aureus ATCC 6538)	ppm needed for 3.5 log kill at 24 hr (Staph. aureus ATCC 6538) [ppm]	HC50 at 24 h (Red blood cell toxicity) [µg/mL]
H-KFKKFKKFKKFKKFKKFKKFKKFK-OH [KFK (8), KEK KFK KFK KFK KFK KFK KFK KFK]	20	32 to 62	145	250	72	>250	113	125 to 250	25	40 to 62	> 500	−6	84.2	>500	>500	>125	>500 ppm	500	–
H-KFKKFKKFKKFKKFKKFKKFKKFKKFKKFK-OH [KFK (10), KFK KFK KFK KFK KFK KFK KEK KFK KFK KFK]	10	12 to 16	31	62	59	>250	104	125 to 250	30	40 to 62	> 500	3	56.8	>500	8	8	4 ppm	500	–
H-KKAKKKAKKKAKKKAKKKAKKKAKKKAK-OH [KKAK (7), KKAK KKAK KKAK KKAK KKAK KKAK KKAK]	26	31 to 62	99	125	60	–	>500	>500	28	>63	> 500	−6	>87.9	>500	16	16	>500 ppm	125	–
H-KKFAKKFAKKFAKKFAKKFAKKFA-OH [KKFA (6), KKFA KKFA KKFA KKFA KKFA KKFA]	7	16 to 32	33	62	136	>250	107	125 to 250	12	32 to 62	–	2	76.4	>500	>500	8	>500 ppm	63	> 500
H-LKKLLKKLLKKLLKKLLKKL-OH [LKKL (5), LKKL LKKL LKKL LKKL LKKL]	49	62 to 125	27	62	69	>250	211	>500	55	62 to 125	9	100	−0.7	31	>500	8	>500 ppm	125	–
H-LKKLLKKLLKKLLKKLLKKLLKKLLKKL-OH [LKKL (7), LKKL LKKL LKKL LKKL LKKL LKKL LKKL]	41	62 to 125	96	125	252	>250	199	250 to 500	85	100 to 125	9	100	−0.4	25	125	8	4 ppm	125	–
H-LKLKLKLKLKLKLKLK-OH [LK (8), LK LK LK LK LK LK LK LK]	65	>125	125	130	56	125 to 250	162	250 to 500	9.7	32 to 63	> 500	13	43.5	122	8	16	31 ppm	4	–
H-LKLKLKLKLKLKLKLKLKLKLK-OH [LK (11), LK LK LK LK LK LK LK LK LK LK LK]	50	>125	51	62	111	>250	185	250 to 500	26	32 to 62	> 500	24	43.8	202	16	8	16 or less ppm	4	–
H-RFARRFARRFARRFARRFARRFAR-OH [RFAR (6), RFAR RFAR RFAR RFAR RFAR RFAR]	12	31 to 62	25	32	15	31 to 62	114	125 to 250	35	62 to 125	176	72	22.1	159	31	31	>500 ppm	8	–
